pIC50: −log10 of the molar value. In brackets after ≈: the same amount, converted by molar mass. Activity calls are given as the source filed them. No cut-off for these calls is given here.
Assays:
[1] = Toxicity in mouse infected with Candida albicans 901 assessed as change in BUN level (reference value: 11.4 +/-1.5 mmol/L); conditions: in vivo
Candida albicans [2] = assay: In vivo antifungal activity against Candida albicans 901 infected in mouse model assessed as increase in CD4positive expression level in presence of BPE; type: functional, organism-based
Candida albicans [3] = assay: (§1) In vivo antifungal activity against Candida albicans 901 infected in mouse model assessed as decrease in IDO protein expression level at 5 microg/g, iv pre-infected with fungi by intravenous injection followed by compound administration and measured on day 8 in presence of 1-MT by Western blotting analysis; type: functional, organism-based; conditions: dose 5.0 µg/g, time 8.0 day
Candida albicans [4] = assay: Induction of apoptosis in Candida albicans ATCC SC5314 assessed as early apoptotic cells by V-FITC/PI staining based flow cytometric analysis (reference value: 3.51%); type: functional
Candida albicans [5] = assay: as §1, with “PD-L1” for “IDO”, “BPE” for “1-MT”; type: functional, organism-based; conditions: dose 5.0 µg/g, time 8.0 day
[6] = Toxicity in mouse infected with Candida albicans 901 assessed as change in BUN level in presence of 1-MT (reference value: 11.4 +/-1.5 mmol/L); conditions: in vivo
[7] = Toxicity in mouse infected with Candida albicans 901 assessed as change in AST level in presence of 1-MT (reference value: 76.1 +/-4.2 IU/L); conditions: in vivo
Candida albicans [8] = assay: Antifungal activity against fluconazole-resistant Candida albicans 904 assessed as reduction in fungal growth incubated for 72 hrs by broth microdilution method; type: functional
Candida albicans [9] = assay: In vivo antifungal activity against Candida albicans 901 infected in mouse model assessed as body weight gain at 5 microg/g, iv pre-infected with fungi by intravenous injection followed by compound administration and measured on day 8 in presence of 1-MT; type: functional, organism-based; conditions: dose 5.0 µg/g, time 8.0 day
Candida albicans [10] = assay: Antifungal activity against fluconazole-resistant Candida albicans 17# assessed as reduction in fungal growth incubated for 72 hrs by broth microdilution method; type: functional
[11] = Toxicity in mouse infected with Candida albicans 901 assessed as change in CRE level (reference value: 21.5 +/-1.7 umol/L); conditions: in vivo
[12] = Toxicity in mouse infected with Candida albicans 901 assessed as change in BUN level in presence of BPE (reference value: 11.4 +/-1.5 mmol/L); conditions: in vivo
Aspergillus fumigatus = assay: Antifungal activity against Aspergillus fumigatus KM 8001 assessed as fungal growth inhibition incubated for 72 hrs by broth microdilution method; type: functional
Candida albicans [13] = assay: (§2) In vivo antifungal activity against Candida albicans 901 infected in mouse model assessed as decrease in IL-2 protein expression level at 5 microg/g, iv pre-infected with fungi by intravenous injection followed by compound administration and measured on day 8 by Western blotting analysis; type: functional, organism-based; conditions: dose 5.0 µg/g, time 8.0 day
Candida albicans [14] = assay: (§3) In vivo antifungal activity against Candida albicans 901 infected in mouse model assessed as reduction in genetic material content in lung at 5 microg/g, iv pre-infected with fungi by intravenous injection followed by compound administration and measured on day 8 by H and E staining based analysis; type: functional, organism-based; conditions: dose 5.0 µg/g, time 8.0 day
Candida albicans [15] = assay: as §3, with “recovery of alveolar structures to normal state” for “reduction in genetic material content”, “8 in presence of 1-MT” for “8”; type: functional, organism-based; conditions: dose 5.0 µg/g, time 8.0 day
Candida albicans [16] = assay: In vivo antifungal activity against Candida albicans 901 infected in mouse model assessed as body weight gain at 5 microg/g, iv pre-infected with fungi by intravenous injection followed by compound administration and measured on day 8 in presence of BPE; type: functional, organism-based; conditions: dose 5.0 µg/g, time 8.0 day
Candida albicans [17] = assay: as §2, with “8 in presence of BPE” for “8”; type: functional, organism-based; conditions: dose 5.0 µg/g, time 8.0 day
Candida albicans [18] = assay: as §1, with “BPE” for “1-MT”; type: functional, organism-based; conditions: dose 5.0 µg/g, time 8.0 day
Candida albicans [19] = assay: Induction of apoptosis in Candida albicans ATCC SC5314 assessed as viable cells by V-FITC/PI staining based flow cytometric analysis (reference value: 93.3%); type: functional
Candida albicans [20] = assay: as §3, with “recovery of alveolar structures to normal state” for “reduction in genetic material content”, “8 in presence of BPE” for “8”; type: functional, organism-based; conditions: dose 5.0 µg/g, time 8.0 day
Candida albicans [21] = assay: Induction of apoptosis in Candida albicans ATCC SC5314 assessed as late apoptotic cells by V-FITC/PI staining based flow cytometric analysis (reference value: 0.40%); type: functional
[22] = Toxicity in mouse infected with Candida albicans 901 assessed as change in AST level in presence of BPE (reference value: 76.1 +/-4.2 IU/L); conditions: in vivo
[23] = Toxicity in mouse infected with Candida albicans 901 assessed as change in ALT level in presence of 1-MT (reference value: 42.8 +/-3.9 IU/L); conditions: in vivo
[24] = Toxicity in mouse infected with Candida albicans 901 assessed as change in CRE level in presence of BPE (reference value: 21.5 +/-1.7 umol/L); conditions: in vivo
[25] = Toxicity in mouse infected with Candida albicans 901 assessed as change in AST level (reference value: 76.1 +/-4.2 IU/L); conditions: in vivo
Cryptococcus neoformans = assay: Antifungal activity against Cryptococcus neoformans ZKCC 2209 assessed as fungal growth inhibition incubated for 72 hrs by broth microdilution method; type: functional
[26] = Toxicity in mouse infected with Candida albicans 901 assessed as change in ALT level in presence of BPE (reference value: 42.8 +/-3.9 IU/L); conditions: in vivo
Candida albicans [27] = assay: Antifungal activity against Candida albicans ATCC SC5314 assessed as fungal growth inhibition incubated for 72 hrs by broth microdilution method; type: functional
[28] = Toxicity in mouse infected with Candida albicans 901 assessed as change in CRE level in presence of 1-MT (reference value: 21.5 +/-1.7 umol/L); conditions: in vivo
Candida albicans [29] = assay: Induction of ROS generation in Candida albicans ATCC SC5314 assessed as increase in fluorescence intensity incubated for 12 hrs by fluorescence microscopic analysis; type: functional, organism-based
Candida albicans [30] = assay: Antifungal activity against fluconazole-resistant Candida albicans CaR assessed as reduction in fungal growth incubated for 72 hrs by broth microdilution method; type: functional
Candida albicans [31] = assay: Induction of apoptosis in Candida albicans ATCC SC5314 assessed as necrotic cells by V-FITC/PI staining based flow cytometric analysis (reference value: 2.74%); type: functional
Candida albicans [32] = assay: as §1, with “PD-L1” for “IDO”; type: functional, organism-based; conditions: dose 5.0 µg/g, time 8.0 day
Candida albicans [33] = assay: Fungicidal activity against Candida albicans ATCC SC5314 assessed as dead cells (reference value: 8%); type: functional
[34] = Inhibition of chitin synthase extracted from Candida tropicalis ATCC 1369 using UDP-GlcNAc as substrate incubated for 1 hrs
Candida albicans [35] = assay: In vivo antifungal activity against Candida albicans 901 infected in mouse model assessed as decrease in IDO protein expression level at 5 microg/g, iv pre-infected with fungi by intravenous injection followed by compound administration and measured on day 8 by Western blotting analysis; type: functional, organism-based; conditions: dose 5.0 µg/g, time 8.0 day
Candida albicans [36] = assay: as §1, with “IFN-gamma” for “IDO”; type: functional, organism-based; conditions: dose 5.0 µg/g, time 8.0 day

## O=C(CNC(=O)c1nc2ccc(Cl)cc2c(=O)[nH]1)NCC(=O)c1ccccc1
[1]
  Activity: 8.2 mmol/L
Candida albicans [2]
  Activity: Active
Candida albicans [3]
  Activity: Active
Candida albicans [4]
  Activity: 14.9%
Candida albicans [5]
  Activity: Active
[6]
  Activity: 10.3 mmol/L
[7]
  Activity: 74.6 IU/L
Candida albicans [8]
  MIC50: 4 µg/mL (≈ 10 µM)
Candida albicans [9]
  Activity: Active
Candida albicans [10]
  MIC50: 4 µg/mL (≈ 10 µM)
[11]
  Activity: 18.7 µmol/L
[12]
  Activity: 9.5 mmol/L
Aspergillus fumigatus
  MIC50: 2 µg/mL (≈ 5.01 µM)
Candida albicans [13]
  Activity: Active
Candida albicans [14]
  Activity: Active
Candida albicans [15]
  Activity: Active
Candida albicans [16]
  Activity: Active
Candida albicans [17]
  Activity: Active
Candida albicans [18]
  Activity: Active
Candida albicans [19]
  Activity: 57.1%
Candida albicans [20]
  Activity: Active
Candida albicans [21]
  Activity: 12.1%
[22]
  Activity: 70.4 IU/L
[23]
  Activity: 40.2 IU/L
[24]
  Activity: 16.3 µmol/L
[25]
  Activity: 63.9 IU/L
Cryptococcus neoformans
  MIC50: 1 µg/mL (≈ 2.51 µM)
[26]
  Activity: 43.6 IU/L
Candida albicans [27]
  MIC50: 1 µg/mL (≈ 2.51 µM)
[28]
  Activity: 20.8 µmol/L
Candida albicans [29]
  Activity: Active
Candida albicans [30]
  MIC50: 2 µg/mL (≈ 5.01 µM)
Candida albicans [31]
  Activity: 15.9%
Candida albicans [32]
  Activity: Active
Candida albicans [33]
  Activity: 97%
[34]
  pIC50: 4.83
Candida albicans [35]
  Activity: Active
Candida albicans [36]
  Activity: Active
